Patent US7271148B2, “Inhibition of cellular proteases” (The Board of Regents of The University of Texas System, priority 1999, dated 2007)

Target: T1, m-calpain (Homo sapiens, UniProt P17655)
T1 construct: purchased Sigma (St. Louis, Mo.)
T1 sequence (P17655 1-700): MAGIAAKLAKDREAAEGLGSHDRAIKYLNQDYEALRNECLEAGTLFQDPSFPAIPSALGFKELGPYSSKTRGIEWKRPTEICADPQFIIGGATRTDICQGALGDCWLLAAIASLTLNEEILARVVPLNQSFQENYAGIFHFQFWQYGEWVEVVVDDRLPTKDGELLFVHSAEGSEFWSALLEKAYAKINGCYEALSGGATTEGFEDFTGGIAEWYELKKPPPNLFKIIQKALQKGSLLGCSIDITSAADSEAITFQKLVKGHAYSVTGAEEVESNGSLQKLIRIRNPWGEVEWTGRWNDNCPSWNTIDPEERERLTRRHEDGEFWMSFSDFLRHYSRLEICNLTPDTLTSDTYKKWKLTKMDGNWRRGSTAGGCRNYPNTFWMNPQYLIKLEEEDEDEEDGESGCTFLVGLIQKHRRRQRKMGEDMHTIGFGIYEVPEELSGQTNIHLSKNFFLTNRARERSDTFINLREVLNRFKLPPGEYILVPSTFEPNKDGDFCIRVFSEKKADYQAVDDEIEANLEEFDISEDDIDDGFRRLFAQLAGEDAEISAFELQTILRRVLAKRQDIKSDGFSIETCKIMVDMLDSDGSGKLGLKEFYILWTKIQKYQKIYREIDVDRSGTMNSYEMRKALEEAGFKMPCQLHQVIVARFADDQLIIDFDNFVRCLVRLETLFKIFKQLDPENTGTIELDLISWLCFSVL
T1 sequence (P04632 1-268 partner): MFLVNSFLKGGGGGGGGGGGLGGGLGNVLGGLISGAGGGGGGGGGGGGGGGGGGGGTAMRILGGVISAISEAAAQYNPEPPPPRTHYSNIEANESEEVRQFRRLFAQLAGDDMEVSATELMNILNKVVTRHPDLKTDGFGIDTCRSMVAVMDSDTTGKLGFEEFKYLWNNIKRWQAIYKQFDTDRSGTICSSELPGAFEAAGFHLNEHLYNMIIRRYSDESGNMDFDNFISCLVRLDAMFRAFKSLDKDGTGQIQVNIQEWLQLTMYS
Assay: Cleavage of purified recombinant p21cip1 by purified m-calpain
Assay type: biochemical
Settings: purified recombinant p21^cip1 incubated with m-calpain
Method: Cleavage of p21^cip1 by calpain. Recombinant p21^cip1 was provided by Harper (37) or Ke (47), and was also prepared using the expression plasmid pET-p21 (37) according to the published methods (30). To evaluate the effect of calpains on p21^cip1, 400 ng of purified recombinant p21^cip1 was incubated with 0.004 units of either pure μ-calpain or m-calpain at 30° C. for 30 minutes in 40 μl of cleavage buffer, containing 25 mM Tris-HCl (pH 7.5), 100 mM NaCl, 3 mM DTT and 5 mM CaCl2 (44). EDTA was added to 10 mM to stop the reaction. An equal volume of 2×SDS gel-loading buffer (18) was mixed with the digestion mixture and the mixture was immediately boiled for 5 min. The digestion products were evaluated by Western blot analysis or SDS-PAGE and coomassie brilliant blue staining.

With CC(C)C[C@H](NC(=O)[C@H]1O[C@@H]1C(=O)O)C(=O)NCCCCN=C(N)N (relative stereo) [E64d, trans-epoxysuccinyl-L-leucylamido (4-guanidino)-butane] the “proteolysis of p21^cip1 by m-calpain (in words)” value was “inhibited the proteolysis”.
